Test results from paper PMC8365601, “Terphenyl-Based Small-Molecule Inhibitors of Programmed Cell Death-1/Programmed Death-Ligand 1 Protein–Protein Interaction” (Journal of Medicinal Chemistry, 2021).
Like-named read-outs stand apart in the source and are kept apart here.

Assays:
human PD-L1 = biological target: T1, human PD-L1 (Homo sapiens, UniProt Q9NZQ7); assay: 1H NMR titration with human PD-L1; assay type: binding; details: molar ratio 1:1
T1 construct: pET-21b plasmid carrying the PD-L1 gene (amino acids 18–134); made in house; host or cells: Escherichia coli BL21
T1 sequence (Q9NZQ7 18-134): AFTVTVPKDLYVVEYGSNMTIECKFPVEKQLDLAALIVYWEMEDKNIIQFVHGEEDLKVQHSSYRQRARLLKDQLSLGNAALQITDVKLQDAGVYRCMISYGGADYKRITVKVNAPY
Experimental: NMR spectra were recorded in PBS pH 7.4 containing 10% (v/v) of D2O added to the samples to provide the lock signal. Water suppression was carried out using the WATERGATE sequence. All the spectra were recorded at 300 K using a Bruker AVANCE 600 MHz spectrometer with the cryo-platform. The spectra were recorded at the ligand/protein ratio of 1:1, unless stated otherwise. The samples were prepared by adding small amounts of a 50 mM ligand stock solution in DMSO to the protein solution (0.20 mL) of PD-L1 fragment at a concentration of 0.2 mM. Spectra were visualized using TopSpin 4.0.2.

PD-1/PD-L1 complex = PD-1/PD-L1 complex (Homo sapiens, UniProt Q9NZQ7); assay: HTRF assay of PD-1/PD-L1 complex dissociation (CisBio); details: for IC50: HTRF; for remaining activity at 0.005 µM: 2 h;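 for all read-outs here: human PD-L1 at 5 nM with human PD-1 at 50 nM, TR-FRET signal read after 2 h at room temperature, background removed via negative control and scaled to positive control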
PD-1/PD-L1 complex, sequence (Q9NZQ7 19-238 limits assumed, one chain of several): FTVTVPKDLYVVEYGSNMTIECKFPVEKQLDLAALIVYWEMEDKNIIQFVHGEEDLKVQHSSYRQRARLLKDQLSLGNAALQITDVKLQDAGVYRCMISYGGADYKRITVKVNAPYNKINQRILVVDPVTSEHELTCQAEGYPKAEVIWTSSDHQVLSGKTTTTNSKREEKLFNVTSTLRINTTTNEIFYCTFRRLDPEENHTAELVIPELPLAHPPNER

PD-1/PD-L1 interaction = biological target: T2, PD-1/PD-L1 interaction (Homo sapiens, UniProt Q9NZQ7); assay: PD-1/PD-L1 ICB assay (Jurkat-ECs with CHO/TCRAct/PD-L1 cells, luciferase); assay type: cell-based; details: Jurkat-ECs with CHO/TCRAct/PD-L1, 6 h; SI csv; read-out: Bioactivity (EC50 in the ICB assay)
T2 construct: host or cells: CHO-K1 (CHO/TCRAct/PD-L1) and Jurkat effector cells
T2 sequence (Q9NZQ7 19-290): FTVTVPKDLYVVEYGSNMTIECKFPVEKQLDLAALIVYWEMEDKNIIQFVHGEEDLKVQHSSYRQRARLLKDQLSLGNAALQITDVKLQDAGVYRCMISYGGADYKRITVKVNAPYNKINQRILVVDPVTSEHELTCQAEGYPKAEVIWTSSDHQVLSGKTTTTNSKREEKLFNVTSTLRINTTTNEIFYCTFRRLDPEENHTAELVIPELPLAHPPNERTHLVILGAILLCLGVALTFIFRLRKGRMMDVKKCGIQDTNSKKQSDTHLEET
Experimental: After a successful optimization of the terphenyl compounds, the activity of the optimized molecules 7a and 8a–j in a cellular context was assessed. To this end, we first performed the PD-1/PD-L1 ICB assay. In this assay, T-cell receptor (TCR)-mediated activation of Jurkat effector cells (Jurkat-ECs) is reduced by the presence of PD-L1, exposed at the surface of CHO/TCRAct/PD-L1 cells (Figure 3A).
The functional assay of the blockade of PD-1/PD-L1 interaction in vitro (PD-1/PD-L1 Blockade Bioassay, Promega) was performed according to the manufacturer’s protocol. CHO/TCRAct/PD-L1 cells or CHO/TCRAct or CHO-K1 cells were seeded on 96-well white plates at the density of 10,000 cells/well and the next day overlaid with Jurkat T cells (20,000 cells/well) in the presence of increasing concentrations of the compounds with DMSO only as a control (the concentration of DMSO was kept constant at 0.1%) or atezolizumab, as a positive control, anti-PD-L1 monoclonal antibody (Selleckchem). The 2.5-fold dilutions of atezolizumab were prepared in the assay buffer (RPMI 1640 + 1% FBS) on the day of the assay. Activation of the Jurkat T cells, reflected by luciferase activity, was monitored by luminescence measurements after 6 h of incubation (37 °C, 5% CO2), and 20 min of additional incubation with the Bio-Glo assay reagent (Promega) at room temperature. The luminescence was read on a Spark microplate reader (Tecan). The data are presented as fold induction of the luminescence signal relative to either untreated (for atezolizumab) or DMSO-treated (for compound) cells. Data points represent mean ± SD values from three to five independent experiments. Half-maximal effective concentrations (EC50 values) were calculated from the Hill curve fitting to the experimental data using Origin Pro 2020 software (OriginLab).

[1] = Cytotoxicity assay toward Jurkat-ECs; assay type: cell-based; details: human, Jurkat-EC cells, SI csv
Experimental: The cytotoxicity of compounds was verified toward Jurkat-ECs since these cells provide the readout in the ICB assay and present a much higher degree of susceptibility to the compounds’ toxicity than CHO-K1 cells (not shown). Jurkat-ECs were seeded on 96-well transparent plates in the presence of increasing concentrations of the compounds with DMSO-treated cells as a control. The concentration of DMSO was kept constant (0.1%). After 48 h of incubation, a tetrazolium reagent, Biolog redox dye MIX MB (Biolog), was added according to the manufacturer’s protocol, and the culture plates were incubated for an additional 2 h (37 °C, 5% CO2). The absorbance was measured using a Spark microplate reader (Tecan) at 590 nm with 750 nm as a reference. The data are presented as Jurkat-EC survival relative to DMSO-treated control cells. Data points represent mean ± SD values from three independent experiments. Half-maximal effective concentrations (EC50 values) were calculated from the dose–response curve using OriginPro 2020 (OriginLab) software.

[2] = system: primary CD4+ and CD8+ T cells (PBMCs); assay: T-cell activation (TCA) assay, PBMCs with CHO/TCRAct/PD-L1 cells, flow cytometry; assay type: cell-based, human; details: 48 h; compounds 0.1, 0.5, 2.5 μM; mAbs 5 μg/mL
Experimental: A standard ICB assay relies on artificial Jurkat-ECs, which are surrogates of T-cells. To verify the potential of the compounds to reactivate the PD-L1-blocked primary T cells, a modified assay termed T-cell activation (TCA) was carried out.[32] In this assay, human primary peripheral blood mononuclear cells (PBMCs) are allowed to make contact with CHO/TCRAct/PD-L1 cells alone or in the presence of PD-1/PD-L1 blockers, and the activation of CD4^+ and CD8^+ T cell is monitored by flow cytometry.
Anticoagulant citrate dextrose-A-treated blood from healthy donors was purchased from the Regional Center of Blood Donation and Blood Therapy in Krakow, Poland. PBMCs were isolated from whole blood by density gradient centrifugation using Pancoll human separating solution (PAN-Biotech GmbH, Aidenbach, Germany). The separated cells were washed and resuspended in RPMI 1640 medium (Biowest) containing 10% FBS (Biowest). PBMCs were added at an amount of 3 × 10^5 to CHO, CHO/TCRAct, or CHO/TCRAct/PD-L1 cells preseeded on 24-well plates in the presence of either anti-PD-L1 mAbs (at the final concentration 5 μg/mL): durvalumab (Selleckchem), atezolizumab (Selleckchem), or avelumab (MedChemExpress) or tested compounds at the concentrations 0.1, 0.5, and 2.5 μM. Untreated cells were used as controls for antibody treatment, while DMSO-treated cells [0.1% (v/v)] were used as controls for compound treatment. The cells were incubated for 48 h (37 °C, 5% CO2) and then detached from the plates with TrypLe Select Enzyme (Thermo Fisher). PBMCs were stained for 20 min at room temperature with the antibodies: anti-CD4-FITC, anti-CD8-BV510, anti-CD69-APC, anti-CD25-PE, anti-HLA-DR-PerCP, and anti-PD1-PECy7 (Becton Dickinson Biosciences, BD). Following two washing steps, the cells were analyzed with a FACSCanto II cytometer. Data analysis was carried out with FlowJo software, followed by statistical significance calculations done with Origin Pro 2020 software (OriginLab). Statistical significance was analyzed with one-way analysis of variance (ANOVA), followed by the Fisher’s posthoc test: *p < 0.05, **p < 0.01, […].

[3] = read-out: % of undissociated complex at 5 nM
[4] = read-out: HTRF % of the undissociated complex at 5 nM
[5] = Table 4, <1.00 = limit of quantification reached

Compound | remaining activity at 0.005 µM (PD-1/PD-L1 complex; [3]) | remaining activity at 0.005 µM (PD-1/PD-L1 complex; [4]) | IC50 (PD-1/PD-L1 complex; [5]) | also measured
Cc1c(-c2ccc(CO)cc2)cccc1-c1ccc2c(c1)OCCO2 [4a, (3′-(Benzo-1,4-dioxan-6-yl)-2′-methyl-[1,1′-biphenyl]-4-yl)methanol] |  |  |  | change of hPD-L1 1H NMR spectrum on adding compound (human PD-L1): broadening of the hPD-L1 proton signals; IC50 (PD-1/PD-L1 complex; Table 1): 5.52 ± 0.04 µM
COc1cc(-c2cccc(-c3ccc4c(c3)OCCO4)c2Cl)ccc1CNCCNC(C)=O [7a, N-(2-(((3′-(Benzo-1,4-dioxan-6-yl)-2′-chloro-3-methoxy-[1,1′-biphenyl]-4-yl)methyl)amino)ethyl)acetamide] | 0% | 0% |  | change of hPD-L1 1H NMR spectrum on adding compound (human PD-L1): broadening of the hPD-L1 proton signals; EC50 (PD-1/PD-L1 interaction): 2.82 ± 0.4 µM; EC50 at 48 h [1]: 3.19 ± 0.41 µM; complex dissociation (PD-1/PD-L1 complex; 5 nM ligand): complete complex dissociation; IC50 (PD-1/PD-L1 complex; Table 3): 0.00082 ± 2e-05 µM
CC(=O)NCCNCc1ccc(-c2cccc(-c3ccc4c(c3)OCCO4)c2Cl)cc1OCCC(C)C [7d, N-(2-(((3′-(Benzo-1,4-dioxan-6-yl)-2′-chloro-3-isopentyloxy-[1,1′-biphenyl]-4-yl)methyl)amino)ethyl)acetamide] | 65% | 65% |  | 
CC(=O)NCCNCc1ccc(-c2cccc(-c3ccc4c(c3)OCCO4)c2Cl)cc1OCC#N [7e, N-(2-(((3′-(Benzo-1,4-dioxan-6-yl)-2′-chloro-3-(cyanomethoxy)-[1,1′-biphenyl]-4-yl)methyl)amino)ethyl)acetamide] | 1% | 1% |  | change of hPD-L1 1H NMR spectrum on adding compound (human PD-L1): broadening of the hPD-L1 proton signals; complex dissociation (PD-1/PD-L1 complex; 5 nM ligand): 99%
CC(=O)NCCNCc1ccc(-c2cccc(-c3ccc4c(c3)OCCO4)c2Cl)cc1OCC1CCC1 [7f, N-(2-(((3′-(Benzo-1,4-dioxan-6-yl)-2′-chloro-3-(cyclobutylmethoxy)-[1,1′-biphenyl]-4-yl)methyl)amino)ethyl)acetamide] | 53% | 53% |  | 
CC(=O)NCCNCc1ccc(-c2cccc(-c3ccc4c(c3)OCCO4)c2Cl)cc1OCC1CCCC1 [7g, N-(2-(((3′-(Benzo-1,4-dioxan-6-yl)-2′-chloro-3-(cyclopentylmethoxy)-[1,1′-biphenyl]-4-yl)methyl)amino)ethyl)acetamide] | 76% | 76% |  | 
CC(=O)NCCNCc1ccc(-c2cccc(-c3ccc4c(c3)OCCO4)c2Cl)cc1OCc1cccc(-c2cccc(C#N)c2)c1 [7h, N-(2-(((3′-(Benzo-1,4-dioxan-6-yl)-2′-chloro-3-((3′-cyano-[1,1′-biphenyl]-3-yl)methoxy)-[1,1′-biphenyl]-4-yl)methyl)amino)ethyl)acetamide] | 100% | 100% |  | 
avelumab: therapeutic anti-PD-L1 antibody |  |  |  | numbers of PD-1-positive T cells [2]: increases the expression of PD-1 on T-cells
durvalumab: therapeutic anti-PD-L1 antibody |  |  |  | numbers of PD-1-positive T cells [2]: increases the expression of PD-1 on T-cells

The next lines start with results.

remaining activity at 0.005 µM (PD-1/PD-L1 complex; [3]) | remaining activity at 0.005 µM (PD-1/PD-L1 complex; [4]) | IC50 (PD-1/PD-L1 complex; [5]) | Compound | also measured
38% | 38% | 0.01809 ± 9e-05 µM | COc1cc(-c2cccc(-c3ccc4c(c3)OCCO4)c2Cl)ccc1CN1CCNCC1 [8a, 1-((3′-(Benzo-1,4-dioxan-6-yl)-2′-chloro-3-methoxy-[1,1′-biphenyl]-4-yl)methyl)piperazine] | 
28% | 28% | < 0.001 µM | COc1cc(-c2cccc(-c3ccc4c(c3)OCCO4)c2Cl)ccc1CN1CCN(C(N)=O)CC1 [8b, 4-((3′-(Benzo-1,4-dioxan-6-yl)-2′-chloro-3-methoxy-[1,1′-biphenyl]-4-yl)methyl)piperazine-1-carboxamide] | 
40% | 40% | < 0.001 µM | COc1cc(-c2cccc(-c3ccc4c(c3)OCCO4)c2Cl)ccc1CN1CCN(C(C)=O)CC1 [8c, 1-(4-((3′-(Benzo-1,4-dioxan-6-yl)-2′-chloro-3-methoxy-[1,1′-biphenyl]-4-yl)methyl)piperazin-1-yl)ethan-1-one] | 
5% | 5% | < 0.001 µM | COc1cc(-c2cccc(-c3ccc4c(c3)OCCO4)c2Cl)ccc1CN1CCN(C(=O)CN)CC1 [8d, 2-Amino-1-(4-((3′-(benzo-1,4-dioxan-6-yl)-2′-chloro-3-methoxy-[1,1′-biphenyl]-4-yl)methyl)piperazin-1-yl)ethan-1-one] | % of the undissociated (remaining) complex (PD-1/PD-L1 complex; 5 nM ligand): 5%
88% | 88% | 0.104 ± 0.00217 µM | COc1cc(-c2cccc(-c3ccc4c(c3)OCCO4)c2Cl)ccc1CN1CCN(S(C)(=O)=O)CC1 [8e, 1-((3′-(Benzo-1,4-dioxan-6-yl)-2′-chloro-3-methoxy-[1,1′-biphenyl]-4-yl)methyl)-4-(methylsulfonyl)piperazine] | 
8% | 8% | < 0.001 µM | COc1cc(-c2cccc(-c3ccc4c(c3)OCCO4)c2Cl)ccc1CNCCNC(=O)CN [8f, 2-Amino-N-(2-(((3′-(benzo-1,4-dioxan-6-yl)-2′-chloro-3-methoxy-[1,1′-biphenyl]-4-yl)methyl)amino)ethyl)acetamide] | EC50 (PD-1/PD-L1 interaction): 3.28 ± 0.6 µM; EC50 at 48 h [1]: 3.1 ± 0.22 µM
32% | 32% | 0.00207 ± 4e-05 µM | COc1cc(-c2cccc(-c3ccc4c(c3)OCCO4)c2Cl)ccc1CNCCNS(C)(=O)=O [8g, N-(2-(((3′-(Benzo-1,4-dioxan-6-yl)-2′-chloro-3-methoxy-[1,1′-biphenyl]-4-yl)methyl)amino)ethyl)methanesulfonamide] | EC50 (PD-1/PD-L1 interaction): 11.1 ± 4.35 µM; EC50 at 48 h [1]: 4.47 ± 0.58 µM
